Targets include MUSK (human) (UniProt O15146); FGR (human) (UniProt P09769); AKT1 (human) (UniProt P31749); EPHA8 (human) (UniProt P29322); ALK (human) (UniProt Q9UM73); SRC (human) (UniProt P12931); MET (human) (UniProt P08581).
Test in all cases: radiometric filter-binding kinase assay, Kinase HotSpot
Common to all, as to conditions: compound 0.5 µM; ATP 10 µM

SMILES strings stand for the structures.

Chain of MET (human) (P08581 whole entry, looked up): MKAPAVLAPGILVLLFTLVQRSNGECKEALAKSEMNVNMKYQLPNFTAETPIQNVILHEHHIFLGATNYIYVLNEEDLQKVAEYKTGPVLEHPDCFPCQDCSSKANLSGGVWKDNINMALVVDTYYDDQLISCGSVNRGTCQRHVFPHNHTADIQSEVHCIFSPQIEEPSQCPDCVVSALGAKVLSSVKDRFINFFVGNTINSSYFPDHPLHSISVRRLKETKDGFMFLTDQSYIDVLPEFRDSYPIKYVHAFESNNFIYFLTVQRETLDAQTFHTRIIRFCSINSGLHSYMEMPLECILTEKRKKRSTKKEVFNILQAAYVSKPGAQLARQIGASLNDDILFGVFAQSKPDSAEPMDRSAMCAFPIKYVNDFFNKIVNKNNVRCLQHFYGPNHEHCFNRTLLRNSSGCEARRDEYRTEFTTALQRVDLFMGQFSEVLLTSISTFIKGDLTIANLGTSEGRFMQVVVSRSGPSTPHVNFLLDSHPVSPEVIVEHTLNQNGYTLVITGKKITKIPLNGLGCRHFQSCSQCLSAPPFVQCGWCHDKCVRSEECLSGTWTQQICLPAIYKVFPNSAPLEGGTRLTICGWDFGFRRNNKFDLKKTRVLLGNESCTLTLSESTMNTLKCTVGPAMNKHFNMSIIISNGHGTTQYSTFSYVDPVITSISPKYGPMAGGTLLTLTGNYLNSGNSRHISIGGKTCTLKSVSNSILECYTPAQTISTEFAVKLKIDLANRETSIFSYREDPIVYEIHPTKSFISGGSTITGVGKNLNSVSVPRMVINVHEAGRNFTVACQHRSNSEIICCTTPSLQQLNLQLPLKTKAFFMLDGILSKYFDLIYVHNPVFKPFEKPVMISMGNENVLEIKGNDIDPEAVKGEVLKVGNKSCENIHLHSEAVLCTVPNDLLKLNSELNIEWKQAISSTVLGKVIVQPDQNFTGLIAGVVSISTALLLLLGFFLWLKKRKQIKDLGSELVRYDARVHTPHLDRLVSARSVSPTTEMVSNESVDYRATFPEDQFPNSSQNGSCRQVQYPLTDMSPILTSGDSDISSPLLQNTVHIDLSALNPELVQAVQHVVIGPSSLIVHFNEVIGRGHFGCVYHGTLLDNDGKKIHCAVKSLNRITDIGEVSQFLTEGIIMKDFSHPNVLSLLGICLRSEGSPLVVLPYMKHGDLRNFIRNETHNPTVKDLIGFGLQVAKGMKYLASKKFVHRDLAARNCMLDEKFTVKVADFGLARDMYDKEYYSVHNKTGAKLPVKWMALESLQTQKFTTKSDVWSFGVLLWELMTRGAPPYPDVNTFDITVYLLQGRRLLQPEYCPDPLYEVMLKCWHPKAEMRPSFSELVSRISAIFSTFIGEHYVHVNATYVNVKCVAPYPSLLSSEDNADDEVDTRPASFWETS
Chain of ALK (human) (Q9UM73 whole entry, looked up): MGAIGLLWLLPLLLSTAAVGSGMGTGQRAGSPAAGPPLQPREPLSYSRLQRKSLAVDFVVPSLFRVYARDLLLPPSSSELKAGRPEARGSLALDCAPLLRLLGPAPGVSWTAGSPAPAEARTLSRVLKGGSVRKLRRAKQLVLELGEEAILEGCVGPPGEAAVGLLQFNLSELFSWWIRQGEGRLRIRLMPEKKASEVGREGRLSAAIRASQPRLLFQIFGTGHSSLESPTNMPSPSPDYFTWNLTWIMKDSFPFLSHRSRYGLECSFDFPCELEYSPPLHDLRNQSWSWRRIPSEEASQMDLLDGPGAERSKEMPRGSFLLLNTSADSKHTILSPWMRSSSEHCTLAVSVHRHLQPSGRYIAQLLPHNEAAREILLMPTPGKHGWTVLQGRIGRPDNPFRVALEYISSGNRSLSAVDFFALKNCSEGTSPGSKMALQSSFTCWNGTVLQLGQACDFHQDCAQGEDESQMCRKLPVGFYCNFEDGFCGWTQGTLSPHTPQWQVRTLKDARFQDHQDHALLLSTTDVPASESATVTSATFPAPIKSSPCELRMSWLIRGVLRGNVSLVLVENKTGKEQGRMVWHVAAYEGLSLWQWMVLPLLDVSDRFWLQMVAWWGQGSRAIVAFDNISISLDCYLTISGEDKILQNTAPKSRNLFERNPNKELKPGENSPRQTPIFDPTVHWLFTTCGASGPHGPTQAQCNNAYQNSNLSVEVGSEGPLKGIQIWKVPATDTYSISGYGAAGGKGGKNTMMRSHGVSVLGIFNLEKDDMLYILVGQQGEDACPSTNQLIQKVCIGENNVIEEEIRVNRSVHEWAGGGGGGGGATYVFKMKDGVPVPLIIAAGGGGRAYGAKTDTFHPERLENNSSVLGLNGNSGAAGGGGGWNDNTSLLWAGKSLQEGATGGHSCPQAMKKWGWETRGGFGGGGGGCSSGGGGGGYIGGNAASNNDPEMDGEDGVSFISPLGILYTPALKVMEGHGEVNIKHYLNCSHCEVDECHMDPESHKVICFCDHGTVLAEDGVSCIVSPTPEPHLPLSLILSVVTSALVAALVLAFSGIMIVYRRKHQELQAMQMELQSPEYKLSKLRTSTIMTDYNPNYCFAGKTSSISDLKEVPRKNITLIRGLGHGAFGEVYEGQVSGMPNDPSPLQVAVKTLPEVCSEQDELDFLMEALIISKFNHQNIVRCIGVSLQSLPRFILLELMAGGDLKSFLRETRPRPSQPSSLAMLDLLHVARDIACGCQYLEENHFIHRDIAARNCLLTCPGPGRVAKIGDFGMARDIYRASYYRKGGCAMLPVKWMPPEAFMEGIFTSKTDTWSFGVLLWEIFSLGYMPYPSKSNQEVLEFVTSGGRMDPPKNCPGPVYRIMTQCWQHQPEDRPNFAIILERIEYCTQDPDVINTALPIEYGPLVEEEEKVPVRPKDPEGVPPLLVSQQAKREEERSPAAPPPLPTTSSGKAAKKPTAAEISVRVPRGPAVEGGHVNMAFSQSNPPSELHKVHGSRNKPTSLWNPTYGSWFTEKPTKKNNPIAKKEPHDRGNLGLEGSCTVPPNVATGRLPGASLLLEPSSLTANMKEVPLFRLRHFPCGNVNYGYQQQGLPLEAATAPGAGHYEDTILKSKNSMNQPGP
Chain of AKT1 (human) (P31749 whole entry, looked up): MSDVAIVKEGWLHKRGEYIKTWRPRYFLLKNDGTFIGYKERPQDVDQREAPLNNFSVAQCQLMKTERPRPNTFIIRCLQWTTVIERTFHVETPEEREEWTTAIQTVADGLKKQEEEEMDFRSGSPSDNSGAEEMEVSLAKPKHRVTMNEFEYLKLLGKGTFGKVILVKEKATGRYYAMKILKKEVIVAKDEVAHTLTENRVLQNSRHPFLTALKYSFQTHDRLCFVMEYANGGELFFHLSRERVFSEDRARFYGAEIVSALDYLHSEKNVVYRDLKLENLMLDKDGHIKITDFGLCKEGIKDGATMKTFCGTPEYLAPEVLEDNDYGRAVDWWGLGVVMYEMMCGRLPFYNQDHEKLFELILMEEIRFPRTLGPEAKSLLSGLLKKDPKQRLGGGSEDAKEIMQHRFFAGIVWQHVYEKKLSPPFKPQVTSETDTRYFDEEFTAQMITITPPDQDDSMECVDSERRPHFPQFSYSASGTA
Chain of MUSK (human) (O15146 whole entry, looked up): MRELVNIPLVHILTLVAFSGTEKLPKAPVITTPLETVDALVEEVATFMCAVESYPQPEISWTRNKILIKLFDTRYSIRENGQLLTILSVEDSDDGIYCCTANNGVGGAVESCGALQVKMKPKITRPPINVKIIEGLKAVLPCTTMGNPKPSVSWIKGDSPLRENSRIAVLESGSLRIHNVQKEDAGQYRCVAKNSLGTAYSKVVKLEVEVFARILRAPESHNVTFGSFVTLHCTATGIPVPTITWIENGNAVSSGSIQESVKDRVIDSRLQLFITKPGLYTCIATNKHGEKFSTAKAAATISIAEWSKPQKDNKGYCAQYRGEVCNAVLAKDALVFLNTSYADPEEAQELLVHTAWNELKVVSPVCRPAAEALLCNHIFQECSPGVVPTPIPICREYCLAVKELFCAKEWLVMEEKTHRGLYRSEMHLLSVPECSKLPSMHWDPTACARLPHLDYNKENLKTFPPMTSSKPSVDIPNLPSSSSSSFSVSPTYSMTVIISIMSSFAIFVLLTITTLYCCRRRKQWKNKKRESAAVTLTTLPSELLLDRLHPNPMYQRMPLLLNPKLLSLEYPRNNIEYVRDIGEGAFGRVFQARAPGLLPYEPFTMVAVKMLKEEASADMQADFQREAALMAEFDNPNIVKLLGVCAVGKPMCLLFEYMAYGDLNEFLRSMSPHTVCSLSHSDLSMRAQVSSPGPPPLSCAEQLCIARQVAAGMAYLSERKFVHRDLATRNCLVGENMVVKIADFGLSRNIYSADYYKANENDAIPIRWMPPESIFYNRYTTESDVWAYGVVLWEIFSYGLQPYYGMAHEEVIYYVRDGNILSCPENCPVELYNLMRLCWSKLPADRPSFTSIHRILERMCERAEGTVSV
Chain of FGR (human) (P09769 whole entry, looked up): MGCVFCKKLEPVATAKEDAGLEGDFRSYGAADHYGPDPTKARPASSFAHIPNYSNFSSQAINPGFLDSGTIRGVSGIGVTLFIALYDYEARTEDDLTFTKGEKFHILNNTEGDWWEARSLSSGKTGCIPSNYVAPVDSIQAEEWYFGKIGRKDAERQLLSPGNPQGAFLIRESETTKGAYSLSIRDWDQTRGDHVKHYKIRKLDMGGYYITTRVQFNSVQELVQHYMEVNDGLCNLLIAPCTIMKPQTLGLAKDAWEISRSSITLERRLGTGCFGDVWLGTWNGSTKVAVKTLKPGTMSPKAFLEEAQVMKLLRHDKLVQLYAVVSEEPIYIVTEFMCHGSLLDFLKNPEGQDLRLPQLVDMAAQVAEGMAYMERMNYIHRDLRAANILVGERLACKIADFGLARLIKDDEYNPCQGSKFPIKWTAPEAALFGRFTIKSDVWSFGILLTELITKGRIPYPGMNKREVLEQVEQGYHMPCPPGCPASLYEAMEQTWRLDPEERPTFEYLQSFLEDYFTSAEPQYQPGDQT

What is called residual activity is the share of the control activity or signal that is left under treatment. Read a low residual activity as little activity left. For the compound `CN[C@@H]1C[C@H]2O[C@@](C)([C@@H]1OC)n1c3ccccc3c3c4c(c5c6ccccc6n2c5c31)C(=O)NC4`, the residual activity is 12.2% at MUSK (human); 0.266% at FGR (human); 7.49% at AKT1 (human); 25.7% on EPHA8 (human); 0.859% at ALK (human); 1.46% on SRC (human). This compound also gave a residual activity at MET (human) of 32.7%.

(Values after the kinase profiling compilation of Christmann-Franck et al. (2016).)
